Target: T1, AR (androgen receptor) protein in VCaP cells (Homo sapiens, UniProt P10275)
T1 construct: endogenous in cells; host or cells: VCaP cells
T1 sequence (P10275 1-920): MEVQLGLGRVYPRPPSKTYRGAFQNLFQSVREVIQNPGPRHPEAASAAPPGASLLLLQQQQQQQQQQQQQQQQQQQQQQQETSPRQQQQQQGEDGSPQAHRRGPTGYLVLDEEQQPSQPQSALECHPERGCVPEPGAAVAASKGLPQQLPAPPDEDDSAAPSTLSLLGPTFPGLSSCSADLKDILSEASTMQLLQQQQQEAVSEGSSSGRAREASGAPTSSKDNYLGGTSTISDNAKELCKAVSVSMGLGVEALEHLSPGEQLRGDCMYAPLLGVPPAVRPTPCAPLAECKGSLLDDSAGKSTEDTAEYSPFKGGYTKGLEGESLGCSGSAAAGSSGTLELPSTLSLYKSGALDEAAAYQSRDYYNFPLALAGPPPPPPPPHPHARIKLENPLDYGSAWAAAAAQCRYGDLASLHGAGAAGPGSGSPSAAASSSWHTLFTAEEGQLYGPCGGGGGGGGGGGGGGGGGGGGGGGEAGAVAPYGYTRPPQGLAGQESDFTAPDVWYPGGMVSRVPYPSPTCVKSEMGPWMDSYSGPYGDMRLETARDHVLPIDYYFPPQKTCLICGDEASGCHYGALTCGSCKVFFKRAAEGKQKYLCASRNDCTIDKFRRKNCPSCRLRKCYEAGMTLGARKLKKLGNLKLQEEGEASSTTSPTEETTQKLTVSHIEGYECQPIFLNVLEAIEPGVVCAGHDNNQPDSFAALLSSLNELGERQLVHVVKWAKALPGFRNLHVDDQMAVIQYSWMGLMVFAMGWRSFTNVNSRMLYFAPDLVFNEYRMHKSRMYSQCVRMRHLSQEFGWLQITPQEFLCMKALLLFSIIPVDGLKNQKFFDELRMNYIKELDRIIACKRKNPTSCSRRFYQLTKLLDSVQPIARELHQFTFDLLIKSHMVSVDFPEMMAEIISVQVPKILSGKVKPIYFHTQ
Test: VCAP AR Degradation Assay
Type: cell-based
Conditions: 24 h, AR ELISA; for DC50: concentration of compound when AR level = 50% of DMSO control; for remaining activity at up to 5 µM: top concentration 5 μM, read-out: Y (lowest measured AR level normalized to DMSO control, AR degradation efficiency)
Procedure: VCAP AR Degradation Assay. Test compounds were pre-dispensed into a Corning CellBind 96-well clear bottom plate (Cat #3300) using an acoustic dispenser to make a 10-point concentration series at 1:3 dilution for each compound. The final top concentration of each compound was 5 μM. DMSO at a final concentration of 0.1% was used as a control. VCaP cells cultured in DMEM with 8% fetal bovine serum (FBS) were seeded at 50K cells per well in a 200 μL volume into the compound plate and incubated at 37° C. in a CO2 incubator for 24 h. The medium was carefully removed from the cells and the plate was placed on ice. One hundred μL of ice-cold 1× cell lysis buffer from Cell Signaling Technologies (Cat #9803) was added to each well of the cells and the plate was incubated at 4° C. on a shaker for 1 h. Fifteen μL of cell lysate was used for AR ELISA detection using a PathScan Total Sandwich AR ELISA kit (Cell Signaling Technology, Cat #12580). AR levels in compound-treated wells were normalized to that of DMSO control and expressed as percent of control (PoC) (y). A Four Parameter Logistic Model (Sigmoidal Dose-Response Model) was used to determine the compound's DC50, and EC50, using the following equation: y=(A+((B−A)/(1+((C/x)^D)))) • A=YMin (lowest AR level normalized to DMSO control in response to compound treatment, as determined by curve fit) • B=YMax (maximum AR level as determined by curve fit) • C=EC50 • D=Hill Slope • x=compound concentration • EC50=the concentration of compound when y=(YMax−YMin)/2 • DC50=the concentration of the compound when y=50% of DMSO control (50% AR degradation) • y=AR protein level normalized to DMSO control
The lowest measured AR level normalized to DMSO control in response to compound treatment, termed Y value, was used to characterize the compound-mediated AR degradation efficiency.

DC50 [nM]	remaining activity at up to 5 µM [%]	SMILES
5 to 20	0 to 25	C[C@@H]1C[C@H](OCCC[C@H]2CC[C@H](N3C(=S)N(c4cnc(C#N)c(C(F)(F)F)c4)C(=O)C3(C)C)CC2)C[C@H](C)N1CC(=O)Nc1cccc2c(C3CCC(=O)NC3=O)nn(C)c12 (stereo partly drawn) [Cmpd 24, 2-((2R,4r,6S)-4-(3-((trans)-4-(3-(6-Cyano-5-(trifluoromethyl)pyridin-3-yl)-5,5-dimethyl-4-oxo-2-thioxoimidazolidin-1-yl)cyclohexyl)propoxy)-2,6-dimethylpiperidin-1-yl)-N-(3-(2,6-dioxopiperidin-3-yl)-1-methyl-1H-indazol-7-yl)acetamide]
2 to 5	0 to 25	C[C@@H]1C[C@H](OCC[C@H]2CC[C@H](N3C(=S)N(c4cnc(C#N)c(C(F)(F)F)c4)C(=O)C3(C)C)CC2)C[C@H](C)N1CC(=O)Nc1cccc2c(C3CCC(=O)NC3=O)nn(C)c12 (stereo partly drawn) [Cmpd 25, 2-((2R,4r,6S)-4-(2-((trans)-4-(3-(6-Cyano-5-(trifluoromethyl)pyridin-3-yl)-5,5-dimethyl-4-oxo-2-thioxoimidazolidin-1-yl)cyclohexyl)ethoxy)-2,6-dimethylpiperidin-1-yl)-N-(3-(2,6-dioxopiperidin-3-yl)-1-methyl-1H-indazol-7-yl)acetamide]
< 2	0 to 25	C[C@@H]1C[C@H](OCCO[C@H]2CC[C@H](N3C(=S)N(c4cnc(C#N)c(C(F)(F)F)c4)C(=O)C3(C)C)CC2)C[C@H](C)N1CC(=O)Nc1cccc2c(C3CCC(=O)NC3=O)nn(C)c12 (stereo partly drawn) [Cmpd 28, 2-((2R,4r,6S)-4-(2-(((trans)-4-(3-(6-Cyano-5-(trifluoromethyl)pyridin-3-yl)-5,5-dimethyl-4-oxo-2-thioxoimidazolidin-1-yl)cyclohexyl)oxy)ethoxy)-2,6-dimethylpiperidin-1-yl)-N-(3-(2,6-dioxopiperidin-3-yl)-1-methyl-1H-indazol-7-yl)acetamide]
< 2	0 to 25	Cn1nc(C2CCC(=O)NC2=O)c2cccc(NC(=O)CN3CCC(CCO[C@H]4CC[C@H](N5C(=S)N(c6cnc(C#N)c(C(F)(F)F)c6)C(=O)C5(C)C)CC4)C(F)(F)C3)c21 (stereo partly drawn) [Cmpd 29, 2-(4-(2-(((trans)-4-(3-(6-Cyano-5-(trifluoromethyl)pyridin-3-yl)-5,5-dimethyl-4-oxo-2-thioxoimidazolidin-1-yl)cyclohexyl)oxy)ethyl)-3,3-difluoropiperidin-1-yl)-N-(3-(2,6-dioxopiperidin-3-yl)-1-methyl-1H-indazol-7-yl)acetamide]

SMILES	DC50 [nM]	remaining activity at up to 5 µM [%]
C[C@@H]1C[C@H](OCC[C@H]2CC[C@H](N3C(=S)N(c4ccc(C#N)c(C(F)(F)F)c4)C(=O)C3(C)C)CC2)C[C@H](C)N1CC(=O)Nc1cccc2c(C3CCC(=O)NC3=O)nn(C)c12 (stereo partly drawn) [Cmpd 26, 2-((2R,4r,6S)-4-(2-((trans)-4-(3-(4-Cyano-3-(trifluoromethyl)phenyl)-5,5-dimethyl-4-oxo-2-thioxoimidazolidin-1-yl)cyclohexyl)ethoxy)-2,6-dimethylpiperidin-1-yl)-N-(3-(2,6-dioxopiperidin-3-yl)-1-methyl-1H-indazol-7-yl)acetamide]	5 to 20	0 to 25
C[C@@H]1C[C@H](OCCO[C@H]2CC[C@H](N3C(=S)N(c4ccc(C#N)c(C(F)(F)F)c4)C(=O)C3(C)C)CC2)C[C@H](C)N1CC(=O)Nc1cccc2c(C3CCC(=O)NC3=O)nn(C)c12 (stereo partly drawn) [Cmpd 27, 2-((2R,4r,6S)-4-(2-(((trans)-4-(3-(4-Cyano-3-(trifluoromethyl)phenyl)-5,5-dimethyl-4-oxo-2-thioxoimidazolidin-1-yl)cyclohexyl)oxy)ethoxy)-2,6-dimethylpiperidin-1-yl)-N-(3-(2,6-dioxopiperidin-3-yl)-1-methyl-1H-indazol-7-yl)acetamide]	2 to 5	25 to 30

Reference: US12227490B2, “Cereblon binding compounds, compositions thereof, and methods of treatment therewith” (Celgene Corporation, priority 2020, dated 2025)
